In test [1] the target is T1, 5-hydroxytryptamine receptor 2C (Homo sapiens, UniProt P28335).
T1 sequence (P28335 whole entry): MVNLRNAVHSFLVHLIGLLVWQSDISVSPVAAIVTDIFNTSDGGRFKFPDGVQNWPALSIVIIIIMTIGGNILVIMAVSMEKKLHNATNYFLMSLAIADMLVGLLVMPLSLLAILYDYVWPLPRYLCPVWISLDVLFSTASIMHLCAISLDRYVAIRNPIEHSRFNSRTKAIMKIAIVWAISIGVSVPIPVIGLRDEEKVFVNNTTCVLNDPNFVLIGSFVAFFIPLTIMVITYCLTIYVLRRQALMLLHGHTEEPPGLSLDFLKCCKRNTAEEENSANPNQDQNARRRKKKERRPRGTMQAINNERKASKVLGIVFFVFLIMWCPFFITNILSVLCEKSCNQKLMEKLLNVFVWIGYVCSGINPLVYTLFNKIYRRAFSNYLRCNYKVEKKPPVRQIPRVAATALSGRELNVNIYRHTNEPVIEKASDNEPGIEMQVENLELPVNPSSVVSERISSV

The target of test [2] is 5-hydroxytryptamine receptor 2B (Rattus norvegicus, UniProt P30994).
Test [3] addresses T2, 5-hydroxytryptamine receptor 2C (Rattus norvegicus, UniProt P08909).
T2 sequence (P08909 whole entry): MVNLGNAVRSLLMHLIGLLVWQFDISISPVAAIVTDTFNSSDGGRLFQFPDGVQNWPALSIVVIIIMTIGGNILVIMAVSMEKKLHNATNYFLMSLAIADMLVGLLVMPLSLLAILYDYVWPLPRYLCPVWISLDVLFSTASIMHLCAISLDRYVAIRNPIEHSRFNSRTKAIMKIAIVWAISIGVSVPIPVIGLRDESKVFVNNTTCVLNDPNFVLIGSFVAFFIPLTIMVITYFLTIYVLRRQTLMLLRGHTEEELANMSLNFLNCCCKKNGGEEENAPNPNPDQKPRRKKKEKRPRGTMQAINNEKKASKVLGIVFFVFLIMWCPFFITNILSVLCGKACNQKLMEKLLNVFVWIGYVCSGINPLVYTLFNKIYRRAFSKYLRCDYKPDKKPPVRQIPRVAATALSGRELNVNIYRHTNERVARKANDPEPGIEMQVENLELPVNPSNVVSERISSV

Sequence of 5-hydroxytryptamine receptor 2B (P30994 whole entry): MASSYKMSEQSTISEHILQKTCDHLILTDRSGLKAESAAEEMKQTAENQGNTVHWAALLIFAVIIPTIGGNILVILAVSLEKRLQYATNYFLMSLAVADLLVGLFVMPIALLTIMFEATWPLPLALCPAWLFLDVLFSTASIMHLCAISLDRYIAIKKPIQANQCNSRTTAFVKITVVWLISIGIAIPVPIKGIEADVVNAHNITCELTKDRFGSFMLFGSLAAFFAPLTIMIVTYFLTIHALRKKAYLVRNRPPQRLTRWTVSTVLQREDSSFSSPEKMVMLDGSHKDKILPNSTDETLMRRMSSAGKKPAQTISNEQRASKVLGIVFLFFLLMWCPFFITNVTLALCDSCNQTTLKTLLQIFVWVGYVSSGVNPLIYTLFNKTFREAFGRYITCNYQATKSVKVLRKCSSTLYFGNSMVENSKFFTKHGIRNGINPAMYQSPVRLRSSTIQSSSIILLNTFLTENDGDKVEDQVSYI

By Ki is commonly meant the dissociation constant of the complex between target and ligand, obtained from inhibition or displacement. The low end stands for a stronger hold on the target, the high end for a looser hold on the target. Turning to `CC(N)Cc1c[nH]c2ccc(OCc3cccs3)cc12` (stereo not drawn) [NSC_5311036], the Ki in test [1] came to 316 nM; in test [2], 12.6 nM.

In test [3], `COC(=O)[C@@H]1[C@H]2C[C@H]3c4[nH]c5ccccc5c4CCN3C[C@@H]2CC[C@@H]1O` [yohimbic acid methyl ester] displayed a Ki of 5010 nM.

Source of the values: BindingDB's records for doi:10.1111/j.1476-5381.1995.tb13240.x (Smithkline Beecham Pharmaceuticals, 1995).
